26 molecules from patent US8143259B2, “Cold menthol receptor antagonists” (Janssen Pharmaceutica, NV, priority 2008, dated 2012) can be followed below.

pIC50: −log10 of the molar value. Several values for one entry are separate records, joined by “and”; a condition that tells them apart may be missing. Equal values may be shown once.

The term pIC50 denotes the IC50 on a negative log10 scale, so that one unit is a factor of ten. Lower therefore signals a high IC50. A word on the inhibition: it is the change of the read-out against control, counted positive when it falls.

Assay [1] concerns icilin-induced “wet-dog” shakes. As to the kind of experiment: Inhibition of Icilin-Induced “Wet-Dog” Shakes in Rats. The class given is in vivo. Particulars: percent inhibition of wet-dog shakes; rat; 30 mg/kg p.o., 10% solutol, 2 h pre-icilin. The method, then:
(§1) Similar shaking or jumping behavior was also evident in mice, rabbits, cats, dogs and monkeys. In humans, icilin produced a sensation of coolness on contact with mucous membranes, cold prickling when 0.1 mg was dropped on the tongue and coldness in the mouth, pharynx and chest lasting 30-60 minutes when 5-10 mg was ingested orally (Wei E T, Seid D A, J Pharm Pharmacol. 1983, 35, 110). The inhibition or reversal of icilin-induced shaking behaviors in rodents provides evidence for the utility of TRPM8 antagonists of the formula (I) in treating or preventing a disease, syndrome, disorder or condition in a subject in which the disease, syndrome, disorder or condition is affected by the modulation of TRPM8 receptors.
Male Sprague Dawley rats ([…], Charles River Labs, n=6-9/treatment) were used to evaluate the ability of selected compounds of the formula (I) to block icilin-induced “wet-dog” shakes (WDS). […] Icilin was administered in PEG-400 or 10% solutol/H2O, at 1.0 or 3.0 mg/kg, i.p. and spontaneous “wet-dog” shakes were counted 10-20 minutes post-icilin. Results are presented as a percent inhibition of shakes, which was calculated as [1−(test compound WDS count/vehicle WDS count)]×100.

Another assay addresses T1, canine TRPM8 (Canis lupus familiaris, UniProt Q1A7N1).
T1 construct: expressed in transfected cells
Nature of the assay: In Vitro Canine TRPM8 Functional Assay (Ca2+ fluorescence, icilin activation). The class given is cell-based. The conditions noted are these: for % Inh @ 0.2 μM: 0.2 μM compound; for % Inh @ 0.2 μM / % Inh @ 0.5 μM / inhibition at 0.2 µM / inhibition at 0.5 µM: canine TRPM8 HEK293, icilin; for % Inh @ 0.5 μM: 0.5 μM compound; for pIC50: HEK293 cells stably expressing canine TRPM8, icilin activation, Ca2+ fluorescence; for inhibition at 0.2 µM: HEK293, 0.2 μM compound; for inhibition at 0.5 µM: HEK293, 0.5 μM compound. The procedure, abridged: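 HEK293 cells stably expressing canine TRPM8, loaded with Calcium 3 dye; compounds added 5 min before icilin at a concentration giving ~80% maximal response. Peak icilin-evoked Ca2+ fluorescence, basal-subtracted and normalised to maximal response, fitted by sigmoidal nonlinear regression; quadruplicate wells.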

The test system of assay [2] is icilin-induced “wet-dog” shakes. Nature of the assay: Reversal of Icilin-Induced Behaviors in Rats. The conditions noted are these: percent inhibition (reversal) of wet-dog shakes, rat, 30 mg/kg P.O., 20′ post-icilin. The format is in vivo. As for the experimental part: as §1
Male Sprague Dawley rats (225-450 g, Charles River Labs, n=4-6/treatment) were used to evaluate the ability of selected compounds of the formula (I) to reverse icilin-induced “wet-dog” shakes. Icilin was administered in PEG-400 or 10% solutol/H2O, at 1.0 or 3.0 mg/kg, i.p. and spontaneous “wet-dog” shakes (WDS) were counted 10-20 minutes post-icilin. […] Results are presented as a percent inhibition of shakes, which was calculated as [1−(test compound WDS count/vehicle WDS count)]×100.

T1 sequence (Q1A7N1 1-1104): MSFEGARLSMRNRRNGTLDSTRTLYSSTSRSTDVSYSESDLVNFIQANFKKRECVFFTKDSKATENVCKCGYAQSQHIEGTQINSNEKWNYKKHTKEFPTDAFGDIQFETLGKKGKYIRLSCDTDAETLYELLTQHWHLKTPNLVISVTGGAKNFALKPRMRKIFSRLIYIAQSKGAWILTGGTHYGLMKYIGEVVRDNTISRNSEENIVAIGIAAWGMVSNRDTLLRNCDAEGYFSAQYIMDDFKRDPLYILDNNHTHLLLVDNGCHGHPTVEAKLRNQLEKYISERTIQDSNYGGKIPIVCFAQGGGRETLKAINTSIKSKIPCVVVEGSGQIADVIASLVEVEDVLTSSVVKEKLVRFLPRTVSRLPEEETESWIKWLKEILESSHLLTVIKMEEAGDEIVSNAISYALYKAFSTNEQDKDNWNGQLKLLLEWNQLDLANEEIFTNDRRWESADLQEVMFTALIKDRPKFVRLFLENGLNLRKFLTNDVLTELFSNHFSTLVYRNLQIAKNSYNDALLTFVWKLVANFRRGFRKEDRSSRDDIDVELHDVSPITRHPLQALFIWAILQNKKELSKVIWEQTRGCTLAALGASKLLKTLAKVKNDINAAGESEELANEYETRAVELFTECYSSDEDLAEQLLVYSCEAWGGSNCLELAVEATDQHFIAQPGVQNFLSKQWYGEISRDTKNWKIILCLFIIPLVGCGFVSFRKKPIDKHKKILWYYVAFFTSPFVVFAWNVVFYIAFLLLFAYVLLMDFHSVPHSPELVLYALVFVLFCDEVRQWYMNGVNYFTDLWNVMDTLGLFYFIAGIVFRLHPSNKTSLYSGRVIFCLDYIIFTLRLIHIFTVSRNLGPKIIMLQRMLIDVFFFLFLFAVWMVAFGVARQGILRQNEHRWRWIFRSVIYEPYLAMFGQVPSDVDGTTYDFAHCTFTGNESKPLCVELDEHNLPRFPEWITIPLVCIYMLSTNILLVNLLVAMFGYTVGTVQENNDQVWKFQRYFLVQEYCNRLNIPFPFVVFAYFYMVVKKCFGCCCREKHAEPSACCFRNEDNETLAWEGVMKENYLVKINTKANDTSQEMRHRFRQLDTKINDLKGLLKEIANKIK

For `O=C(C(Nc1ccccc1F)c1ccc(C(F)(F)F)cc1)N1CCCC1c1ccccc1F` (single isomer, unassigned) [Cpd 151], the “% Inh” value in assay [1] turned out to be 100%. For the same molecule, the “% Inh @ 0.2 μM” value at canine TRPM8 (0.2 µM) amounted to 103%. Moreover, at canine TRPM8, the “% Inh @ 0.5 μM” value stood at 100.72%; the pIC50 was 8.14 and 8.30. Further, the “% Inh” value in assay [2] (30 mg/kg) is 99% ± 1%.

For the molecule `O=C(C(Nc1ccccc1F)c1ccc(C(F)(F)F)cc1)N1CCC[C@H]1c1ccccc1F` (stereo partly drawn) [Cpd 150, 2-(2-Fluoro-phenylamino)-1-[(2S)-2-(2-fluoro-phenyl)-pyrrolidin-1-yl]-2-(4-trifluoromethyl-phenyl)-ethanone], at canine TRPM8, the inhibition at 0.2 µM turned out to be 89%; the inhibition at 0.5 µM stood at 100%; the pIC50 is 7.92 and 8.40. For the same molecule, in assay [2], the “% Inh” value is recorded as 63% ± 15%.

As for `O=C(C(Nc1ccccc1F)c1ccc(C(F)(F)F)cc1)N1CCCC1c1ccccc1` (single isomer, unassigned) [Cpd 129], at canine TRPM8, the “% Inh @ 0.5 μM” value was 101% and the pIC50 is 7.37. Also, the “% Inh” value in assay [2] (30 mg/kg) is given as 50% ± 21%.

Consider `O=C(C(Nc1ccccc1F)c1ccc(C(F)(F)F)cc1)N1CCCC1c1ccccc1F` (single isomer, unassigned) [Cpd 149], for which, on canine TRPM8, the inhibition at 0.2 µM turned out to be 83%; the inhibition at 0.5 µM was 101%; the negative logarithm of the IC50 (pIC50) is 7.35 and 7.13. Moreover, the “% Inh” value in assay [2] (30 mg/kg) is 61% ± 15%.

For `O=C(C(Nc1ccccc1F)c1ccc(C(F)(F)F)cc1)N1CCCC1c1ccccc1Cl` (single isomer, unassigned) [Cpd 155], at canine TRPM8, the inhibition at 0.5 µM worked out at 99% and the negative-log IC50 (pIC50) was 7.77. In assay [2], the “% Inh” value is reported as 79% ± 13%.

In the case of `O=C(C(Nc1ccccc1F)c1ccc(C(F)(F)F)cc1)N1CCCC1c1cccc(F)c1` (stereo not shown) [Cpd 134], at canine TRPM8, the “% Inh @ 0.5 μM” value came to 98%; the negative-log IC50 (pIC50) was 7.85 and 8.06. Besides, the “% Inh” value in assay [2] is reported as 75% ± 11%.

Turning to `O=C(C(Nc1ccccc1F)c1ccc(Cl)cc1)N1CCCC1c1ccccc1F` (single isomer, unassigned) [Cpd 158], on canine TRPM8, the “% Inh @ 0.5 μM” value amounted to 98% and the negative-log IC50 (pIC50) was 8.30. The “% Inh” value in assay [2] is 86% ± 7%.

For `O=C(C(Nc1ccccc1F)c1ccc(C(F)(F)F)cc1)N1CCCC1c1ccccc1` (single isomer, unassigned) [Cpd 128], on canine TRPM8, the inhibition at 0.5 µM was 100% and the negative-log IC50 (pIC50) is 8.34. The “% Inh” value in assay [2] (30 mg/kg) is 56% ± 19%.

Regarding `COC(=O)c1cccc(C2CCCN2C(=O)C(Nc2ccccc2F)c2cc3ccccc3s2)c1` (stereo not shown) [Cpd 324, 3-{1-[2-Benzo[b]thiophen-2-yl-2-(2-fluoro-phenylamino)-acetyl]-pyrrolidin-2-yl}-benzoic acid methyl ester], at canine TRPM8, the inhibition at 0.2 µM was 101% and the pIC50 is 7.55.

As to `O=C(C(Nc1ccccc1)c1ccc(C(F)(F)F)cc1)N1CCCC1c1ccccc1C(F)(F)F` (single isomer, unassigned) [Cpd 30], on canine TRPM8, the inhibition at 0.5 µM stood at 103% and the negative logarithm of the IC50 (pIC50) was 6.96.

Regarding `O=C(C(Nc1ccccc1)c1ccc(C(F)(F)F)cc1)N1CCCC1c1ccccc1Cl` (single isomer, unassigned) [Cpd 61], on canine TRPM8, the “% Inh @ 0.5 μM” value was determined as 103.2% and the pIC50 was 6.77.

As to `O=C(C(Nc1cccc(F)c1)c1ccc(C(F)(F)F)cc1)N1CCCC1c1ccccc1Cl` (stereo not shown) [Cpd 78], on canine TRPM8, the inhibition at 0.5 µM is 94% and the pIC50 is 6.86.

Consider `O=C(C(Nc1ccccc1F)c1ccc(-c2cccnc2)cc1)N1CCCC1c1ccccc1F` (stereo not shown) [Cpd 285, 2-(2-Fluoro-phenylamino)-1-[2-(2-fluoro-phenyl)-pyrrolidin-1-yl]-2-(4-pyridin-3-yl-phenyl)-ethanone], for which, at canine TRPM8 (0.2 µM), the “% Inh @ 0.2 μM” value was 96%. Besides, on canine TRPM8, the inhibition at 0.2 µM was 91%; the pIC50 was 7.92 and 7.82.

In the case of `O=C(C(c1ccc(C(F)(F)F)cc1)N1CCCc2ccccc21)N1CCCC1c1ccccc1F` (mixture of isomers) [Cpd 292], at canine TRPM8, the “% Inh @ 0.2 μM” value worked out at 45%.

At canine TRPM8, `O=C(C(Nc1ccccc1F)c1cnc2ccccc2c1)N1CCCC1c1ccccc1Cl` (stereo not shown) [Cpd 373] showed a negative logarithm of the IC50 (pIC50) of 8.22.

For `O=C(C(CNc1ccccc1)c1ccc(C(F)(F)F)cc1)N1CCc2ccccc2C1` (stereo not shown) [Cpd 102], on canine TRPM8, the inhibition at 0.5 µM was 98% and the negative logarithm of the IC50 (pIC50) was 6.80.

With `O=C(C(Nc1ccccc1F)c1ccc(Cl)cc1)N1Cc2cccc(F)c2C1` (stereo not shown) [Cpd 114], at canine TRPM8, the inhibition at 0.5 µM was found to be 98% and the pIC50 was 6.90.

Consider `O=C(C(Nc1cc(F)ccc1F)c1ccc(Cl)cc1)N1CCCC1c1ccccc1F` (stereo not shown) [Cpd 170], for which, at canine TRPM8, the inhibition at 0.2 µM turned out to be 100% and the pIC50 is 7.58.

For `O=C(C(Nc1ccc(F)cc1F)c1ccc(Cl)cc1)N1Cc2ccccc2C1` (stereo not shown) [Cpd 126], at canine TRPM8, the inhibition at 0.5 µM came out at 100% and the pIC50 was 6.95.

Consider `O=C(C(Cc1c(F)cccc1F)c1ccc(C(F)(F)F)cc1)N1CCCC1c1ccccc1F` (stereo not shown) [Cpd 244, 3-(2,6-Difluoro-phenyl)-1-[2-(2-fluoro-phenyl)-pyrrolidin-1-yl]-2-(4-trifluoromethyl-phenyl)-propan-1-one], for which, on canine TRPM8, the inhibition at 0.2 µM was determined as 98% and the pIC50 was 7.78.

For the molecule `O=C(O)c1ccc(-c2ccc(C(Nc3ccccc3F)C(=O)N3CCCC3c3ccccc3Cl)cc2)cc1` (stereo not shown) [Cpd 350], at canine TRPM8, the inhibition at 0.2 µM was found to be 99% and the pIC50 is 7.38.

Take `COC(=O)C1CCC(c2ccccc2)N1C(=O)C(Nc1ccccc1)c1ccc(Cl)cc1` (stereo not shown) [Cpd 213]: at canine TRPM8 (0.2 µM), the “% Inh @ 0.2 μM” value stood at 63%.

For the molecule `O=C(C(Nc1ccccc1F)c1ccc(C2=CCNCC2)cc1)N1CCCC1c1ccccc1F` (stereo not shown) [Cpd 302, 2-(2-Fluoro-phenylamino)-1-[2-(2-fluoro-phenyl)-pyrrolidin-1-yl]-2-[4-(1,2,3,6-tetrahydro-pyridin-4-yl)-phenyl]-ethanone], the inhibition at 0.2 µM at canine TRPM8 worked out at 57%.

As for `O=C(C(Nc1cccc(F)c1F)c1ccc(Cl)cc1)N1CCCC1c1ccccc1Cl` (single isomer, unassigned) [Cpd 165], on canine TRPM8, the inhibition at 0.5 µM is 99% and the negative logarithm of the IC50 (pIC50) is 6.79.

For the molecule `O=C(C(c1ccc(C(F)(F)F)cc1)N1CCc2ccccc21)N1CCC[C@H]1c1cccnc1` (single isomer, unassigned) [Cpd 274], on canine TRPM8, the inhibition at 0.2 µM came to 98% and the pIC50 is 7.77.

Take `O=C(O)c1cccc([C@@H]2CCCN2C(=O)C(Nc2ccccc2F)c2ccc(C(F)(F)F)cc2)c1` (mixture of isomers) [Cpd 349, 3-{(1S)-1-[2-(2-Fluoro-phenylamino)-2-(4-trifluoromethyl-phenyl)-acetyl]-pyrrolidin-2-yl}-benzoic acid]: on canine TRPM8, the inhibition at 0.2 µM came out at 100% and the negative logarithm of the IC50 (pIC50) is 7.48.
